Assay results published in ChEMBL document CHEMBL2074244, “Loss of ATP-dependent transport activity in pseudoxanthoma elasticum-associated mutants of human ABCC6 (MRP6)” (J Biol Chem, 2002).
Each block holds one compound with its values, some of them ahead of it.

How the values were obtained:
Assay type in all cases: functional, cell membranes, Membrane vesicle
Set-up in all cases: scale not given: the % may be the effect or the level left
MRP6 (ABCC6) [1] = molecular target: T1, MRP6 (ABCC6) (Homo sapiens, UniProt O95255); assay: TP_TRANSPORTER: inhibition of NEM-GS by Indomethacin at a concentration of 100uM in membrane vesicles from MRP6-expressing Sf9 cells; conditions: probe NEM-GS, read-out: Activity
T1 sequence (O95255 whole entry): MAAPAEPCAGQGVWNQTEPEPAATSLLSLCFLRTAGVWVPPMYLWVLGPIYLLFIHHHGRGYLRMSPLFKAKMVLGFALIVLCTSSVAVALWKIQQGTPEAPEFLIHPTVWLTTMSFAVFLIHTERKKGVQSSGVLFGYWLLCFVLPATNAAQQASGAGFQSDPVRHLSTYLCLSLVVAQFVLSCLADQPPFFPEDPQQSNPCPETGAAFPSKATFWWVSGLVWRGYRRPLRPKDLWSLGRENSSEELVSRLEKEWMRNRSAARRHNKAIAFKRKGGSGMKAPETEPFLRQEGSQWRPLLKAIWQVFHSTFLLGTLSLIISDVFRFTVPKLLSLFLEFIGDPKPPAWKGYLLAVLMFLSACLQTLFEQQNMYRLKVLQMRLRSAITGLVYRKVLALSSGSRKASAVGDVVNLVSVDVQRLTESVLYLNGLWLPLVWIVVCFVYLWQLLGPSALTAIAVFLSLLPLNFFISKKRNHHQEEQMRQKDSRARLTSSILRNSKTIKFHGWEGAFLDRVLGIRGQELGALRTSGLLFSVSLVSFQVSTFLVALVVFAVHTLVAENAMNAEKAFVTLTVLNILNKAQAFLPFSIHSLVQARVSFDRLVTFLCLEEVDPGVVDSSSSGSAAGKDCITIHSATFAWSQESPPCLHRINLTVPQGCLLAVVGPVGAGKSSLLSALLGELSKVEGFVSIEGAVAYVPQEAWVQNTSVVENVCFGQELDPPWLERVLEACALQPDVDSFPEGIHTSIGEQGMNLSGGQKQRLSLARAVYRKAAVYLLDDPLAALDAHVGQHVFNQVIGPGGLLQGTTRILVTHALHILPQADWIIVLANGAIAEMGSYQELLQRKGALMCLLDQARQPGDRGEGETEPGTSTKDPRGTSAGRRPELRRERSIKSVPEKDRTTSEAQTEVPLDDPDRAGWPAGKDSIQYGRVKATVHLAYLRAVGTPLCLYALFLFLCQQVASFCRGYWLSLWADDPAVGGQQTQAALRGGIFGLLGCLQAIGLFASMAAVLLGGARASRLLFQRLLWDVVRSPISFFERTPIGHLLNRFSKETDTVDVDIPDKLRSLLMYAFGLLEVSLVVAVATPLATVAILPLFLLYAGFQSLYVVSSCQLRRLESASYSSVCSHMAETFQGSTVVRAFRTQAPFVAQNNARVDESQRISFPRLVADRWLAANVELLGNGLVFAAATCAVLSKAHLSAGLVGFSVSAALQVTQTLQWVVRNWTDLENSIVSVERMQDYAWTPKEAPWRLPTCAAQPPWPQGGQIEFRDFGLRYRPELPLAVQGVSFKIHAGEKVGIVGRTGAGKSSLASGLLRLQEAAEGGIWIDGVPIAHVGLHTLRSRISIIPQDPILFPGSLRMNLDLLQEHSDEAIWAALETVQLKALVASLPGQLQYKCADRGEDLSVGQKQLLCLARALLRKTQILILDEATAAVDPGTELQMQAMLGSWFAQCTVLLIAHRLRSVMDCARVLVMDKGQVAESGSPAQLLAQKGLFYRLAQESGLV

MRP6 (ABCC6) [2] = molecular target: T1, MRP6 (ABCC6); assay: TP_TRANSPORTER: inhibition of NEM-GS in the presence of Indomethacin at a concentration of 100uM in membrane vesicles from MRP6-expressing Sf9 cells; conditions: probe NEM-GS, read-out: Activity
MRP6 (ABCC6) [3] = molecular target: T1, MRP6 (ABCC6); assay: TP_TRANSPORTER: inhibition of NEM-GS by Benzbromarone at a concentration of 30uM in membrane vesicles from MRP6-expressing Sf9 cells; conditions: probe NEM-GS, read-out: Activity
[4] = molecular target: ATP-binding cassette sub-family C member 2 (Homo sapiens, UniProt Q92887); assay: TP_TRANSPORTER: inhibition of NEM-GS by Benzbromarone at a concentration of 30uM in membrane vesicles from MRP2-expressing Sf9 cells; conditions: sf9, 30 µM
ATP-binding cassette sub-family C member 2, sequence (Q92887 whole entry): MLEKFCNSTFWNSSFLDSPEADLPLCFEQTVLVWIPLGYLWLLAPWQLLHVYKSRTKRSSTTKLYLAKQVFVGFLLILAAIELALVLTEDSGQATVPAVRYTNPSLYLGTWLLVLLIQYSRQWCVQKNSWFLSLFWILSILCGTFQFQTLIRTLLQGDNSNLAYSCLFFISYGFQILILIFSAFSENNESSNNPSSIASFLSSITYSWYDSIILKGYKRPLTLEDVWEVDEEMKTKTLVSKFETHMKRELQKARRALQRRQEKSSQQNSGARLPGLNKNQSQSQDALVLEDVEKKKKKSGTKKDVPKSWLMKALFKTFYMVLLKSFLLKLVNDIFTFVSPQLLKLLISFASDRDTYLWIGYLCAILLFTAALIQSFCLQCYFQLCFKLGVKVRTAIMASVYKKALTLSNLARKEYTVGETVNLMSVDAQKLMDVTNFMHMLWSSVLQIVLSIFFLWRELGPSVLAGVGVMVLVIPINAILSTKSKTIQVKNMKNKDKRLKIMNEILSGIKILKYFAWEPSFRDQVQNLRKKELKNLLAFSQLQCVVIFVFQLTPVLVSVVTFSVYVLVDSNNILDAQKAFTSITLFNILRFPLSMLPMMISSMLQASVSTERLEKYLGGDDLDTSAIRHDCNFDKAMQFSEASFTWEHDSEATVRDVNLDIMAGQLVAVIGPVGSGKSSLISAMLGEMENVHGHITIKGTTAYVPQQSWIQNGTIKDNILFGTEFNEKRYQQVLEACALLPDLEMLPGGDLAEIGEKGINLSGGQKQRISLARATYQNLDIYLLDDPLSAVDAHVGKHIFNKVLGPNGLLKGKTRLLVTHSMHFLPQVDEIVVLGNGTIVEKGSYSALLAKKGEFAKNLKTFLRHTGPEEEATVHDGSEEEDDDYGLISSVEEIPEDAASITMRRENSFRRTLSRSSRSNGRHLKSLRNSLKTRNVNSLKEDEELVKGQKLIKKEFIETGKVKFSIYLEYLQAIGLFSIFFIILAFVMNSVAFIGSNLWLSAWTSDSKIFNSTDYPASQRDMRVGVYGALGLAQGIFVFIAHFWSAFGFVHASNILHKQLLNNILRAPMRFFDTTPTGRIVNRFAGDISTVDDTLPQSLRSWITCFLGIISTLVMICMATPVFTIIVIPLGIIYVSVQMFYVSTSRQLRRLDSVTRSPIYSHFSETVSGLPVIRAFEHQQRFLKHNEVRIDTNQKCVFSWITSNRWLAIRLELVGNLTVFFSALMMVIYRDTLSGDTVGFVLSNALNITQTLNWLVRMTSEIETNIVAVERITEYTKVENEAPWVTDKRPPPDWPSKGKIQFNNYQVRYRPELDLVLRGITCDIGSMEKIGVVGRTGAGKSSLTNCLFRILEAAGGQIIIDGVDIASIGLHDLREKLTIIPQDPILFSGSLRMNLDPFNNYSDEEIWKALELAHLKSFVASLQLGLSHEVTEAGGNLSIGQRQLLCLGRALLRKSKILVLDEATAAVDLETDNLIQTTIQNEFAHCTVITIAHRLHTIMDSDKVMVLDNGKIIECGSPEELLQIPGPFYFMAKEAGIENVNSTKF

MRP6 (ABCC6) [5] = molecular target: T1, MRP6 (ABCC6); assay: TP_TRANSPORTER: inhibition of NEM-GS in the presence of Benzbromarone at a concentration of 30uM in membrane vesicles from MRP6-expressing Sf9 cells; conditions: probe NEM-GS, read-out: Activity
[6] = molecular target: ATP-binding cassette sub-family C member 6 (Homo sapiens, UniProt O95255); assay: TP_TRANSPORTER: inhibition of NEM-GS by Probenecid at a concentration of 1mM in membrane vesicles from MRP6-expressing Sf9 cells; conditions: sf9, 1000 µM
ATP-binding cassette sub-family C member 6, sequence (O95255 whole entry): as the sequence (O95255 whole entry) above

MRP2 (ABCC2) = MRP2 (ABCC2) (Homo sapiens, UniProt Q92887); assay: TP_TRANSPORTER: inhibition of NEM-GS by Probenecid at a concentration of 1mM in membrane vesicles from MRP2-expressing Sf9 cells; conditions: probe NEM-GS, read-out: Activity
MRP2 (ABCC2), sequence (Q92887 whole entry): as the sequence (Q92887 whole entry) above

MRP6 (ABCC6) [7] = molecular target: T1, MRP6 (ABCC6); assay: TP_TRANSPORTER: inhibition of NEM-GS in the presence of Probenecid at a concentration of 1mM in membrane vesicles from MRP6-expressing Sf9 cells; conditions: probe NEM-GS, read-out: Activity

activity at 100 µM (MRP6 (ABCC6) [1]): 20%
activity at 100 µM (MRP6 (ABCC6) [2]): 80%
SMILES: COc1ccc2c(c1)c(CC(=O)O)c(C)n2C(=O)c1ccc(Cl)cc1 [INDOMETHACIN]

activity at 30 µM (MRP6 (ABCC6) [3]): 0%
Activity [4]: 0%
activity at 30 µM (MRP6 (ABCC6) [5]): 0%
SMILES: CCc1oc2ccccc2c1C(=O)c1cc(Br)c(O)c(Br)c1 [BENZBROMARONE]

Activity [6]: 70%
activity at 1000 µM (MRP2 (ABCC2)): 20%
activity at 1000 µM (MRP6 (ABCC6) [7]): 10%
SMILES: CCCN(CCC)S(=O)(=O)c1ccc(C(=O)O)cc1 [PROBENECID]
